Experimental findings from US20140371244A1, “METHOD FOR TREATING PROSTATE CANCER BY USE OF PHARMACEUTICAL COMPOSITION CONTAINING A3 ADENOSINE RECEPTOR AGONIST” (priority 2009, published 2014) are described below.

In the test the test system is NF-κB. The experiment in a line: NF-κB signaling (Western blot, EMSA) in LPS-stimulated RAW 264.7 cells. Format: cell-based, mouse. The text has this: NF-κB is a transcription factor consisting of p65/p50 and is present in an inactivated state by binding to IκB in the cytoplasm, but when it is stimulated by, for example, LPS, it is activated by a series of processes, including the phosphorylation and degradation of IκB by IκB kinase (IKK). When NF-κB state becomes a free state, it moves into the nucleus and binds to the κB-binding site, thereby regulating the expression of genes, such as iNOS, TNF-α and IL-1β, which are involved in inflammatory reactions. Thus, the effect of the inventive composition on the NF-κB signaling system was tested by Western blot analysis and EMSA.
EMSA was performed in order to examine whether NF-κB moves into the nucleus to bind to DNA.
For orientation: A gel shift assay detects complexes by their altered migration in electrophoresis.

As for `CNC(=O)[C@H]1S[C@@H](n2cnc3c(NCc4cccc(I)c4)nc(Cl)nc32)[C@H](O)[C@@H]1O` [thio-Cl-IB-MECA, 2-chloro-N^6-(3-iodobenzyl)-4′-thioadenosine-5′-N-methyluronamide], where the note is “20 μM, 15 minutes after LPS”, the “degradation of IκB protein” value is “the degradation of IκB protein was inhibited”. Further, under “EMSA”, the “DNA binding of NF-κB” value was “inhibited the DNA binding of NF-κB” and the “protein bonding of p65 subunit of NF-κB” value was “inhibited”.
